# Assays:
# Assay type in all cases: in vivo, Goto-Kakizaki rats (GK)
# diabetic GK rats = assay: Blood glucose and lipid in GK rats; details: different ratio experiment; GK rats, high fat diet, oral daily 12 weeks, total 20 mg/kg per Table 3
# From the text: The GK (Goto-Kakizaki) rat is the spontaneous model of diabetes, the pathogenesis of GK rat is very similar to the pathogenesis of type 2 diabetes. After diabetes attack, hyperglycemia and insulin secretion weakened emerge rapidly, the latter diseases may be complicated by retinopathy, micro-vascular disease, neuropathy, nephropathy in GK rat. The GK rats have been widely used in type 2 diabetes study, so we choose GK rat as the animal model of the following experiment. […] Then they can be mixed or diluted in accordance with the dose and the ratio. 1.3 Goto-Kakizaki rats (GK) (4 months age, ♀♂) and Wistar rats (SPF level, ♀♂) were purchased from Shanghai SLAC laboratory animal Co., Ltd. In addition to the normal rats, the other rats were fed with high fat diet (20% protein and 3.5% cholesterol). After the rats was feeding adaptation for one week, The GK rats which the blood glucose level was more than 11.1 mmol/L were selected, and then divided into the following groups random: GK rats control group (n=10); mangiferin groups (10, 30, 200 mg/kg, each group 10 rats); berberine groups (10, 20, 150 mg/kg, each group 10 rats); composition group 1[[mangiferin (10 mg/kg)+berberine (10 mg/kg)], 10 rats]; composition group 2[[mangiferin (200 mg/kg)+berberine (150 mg/kg)], 10 rats]. Wistar rats are normal control group (10 rats). GK rats control group and Wistar rats group were given saline. The other groups were given test drugs. Test samples were administrated orally at the same time every day for 12 weeks. 3.1 Blood Glucose and lipid: The blood specimens were taken at the end of the test. Plasma glucose (GLU), triglycerides (TG), total cholesterol (TC) were determined by HITACHI7080 automatic biochemistry analyzer. […] The results have been calculated as mean±SD ( x±SD) and the comparisons of the data have been done by t-test. […] Mangiferin and berberine are prepared in accordance with the method of preparation of example 1 and 2. Then they can be mixed in accordance with the dose and the ratio such as table 3. 1.2 Animal: Goto-Kakizaki rats (GK) (4 months age, ♀♂) and Wistar rats (SPF level, ♀♂) were purchased from Shanghai SLAC laboratory animal Co., Ltd. In addition to the normal rats, the other rats were fed with high fat diet (20% protein and 3.5% cholesterol). After the rats was feeding adaptation for one week, GK rats that the blood glucose level of the GK rats was more than 11.1 mmol/L were selected, and then random divided into the following groups as follows (Table 3): There are ten rats in every group. GK rats control group and wistar rats group were given saline. The other groups were given test drugs. Test samples were administrated orally at the same time every day for 12 weeks. The measurements are as same as the above experiment.
# aldose reductase (AR) = target: T1, aldose reductase (AR) (Rattus norvegicus, UniProt P07943); assay: Activity of aldose reductase (AR) of lens in GK rats; details: different ratio experiment, oral daily 12 weeks, specific activity, in U/mg protein; for AR activity of lens NADH (0.1 mmol/L): total 20 mg/kg per Table 3, NADH 0.1 mmol/L system; for AR activity of lens NADPH (0.1 mmol/L): total 20 mg/kg per Table 3, NADPH 0.1 mmol/L system
# T1 construct: from tissue; host or cells: lens of GK (Goto-Kakizaki) and Wistar rats
# Description: GK rats control group (n=10); mangiferin groups (10, 30, 200 mg/kg, each group 10 rats); berberine groups (10, 20, 150 mg/kg, each group 10 rats); composition group 1[[mangiferin (10 mg/kg)+berberine (10 mg/kg)], 10 rats]; composition group 2[[mangiferin (200 mg/kg)+berberine (150 mg/kg)], 10 rats]. Wistar rats are normal control group (10 rats). GK rats control group and Wistar rats group were given saline. The other groups were given test drugs. Test samples were administrated orally at the same time every day for 12 weeks. […] At the End of the experiment, the left side lens of rats was taken, then these lenses were added into glycerol and put into refrigerator (−80° C.□) to preserve to determine AR activity. The determination method of AR activity refer to Maragoudakis's method and change slightly, that is: the activity of enzyme is indicated by the record of the absorbance of NADPH in 340 nm decline IOU. […] The second reaction system is 0.1 mmol/L NADH instead of NADPH, the rest of the reagent is same as one of the first response system. The activity of enzyme and the protein content in tissue homogenate are determined at the same time. a unit enzyme activity is indicated by the quantity of the enzyme that produce 1 μmol NADP^+ (or NDA^+) in one minute. […] The results have been calculated as mean±SD ( x±SD) and the comparisons of the data have been done by t-test. There are ten rats in every group. GK rats control group and wistar rats group were given saline. The other groups were given test drugs. Test samples were administrated orally at the same time every day for 12 weeks. The measurements are as same as the above experiment.
# Propyl dialdehyde (MDA) = Propyl dialdehyde (MDA) in kidney tissue homogenate of GK rats; details: different ratio experiment, oral daily 12 weeks, total 20 mg/kg per Table 3
# Description: (§1) GK rats control group (n=10); mangiferin groups (10, 30, 200 mg/kg, each group 10 rats); berberine groups (10, 20, 150 mg/kg, each group 10 rats); composition group 1[[mangiferin (10 mg/kg)+berberine (10 mg/kg)], 10 rats]; composition group 2[[mangiferin (200 mg/kg)+berberine (150 mg/kg)], 10 rats]. Wistar rats are normal control group (10 rats). GK rats control group and Wistar rats group were given saline. The other groups were given test drugs. Test samples were administrated orally at the same time every day for 12 weeks. 3.3.1 Preparation of tissue homogenate: Rats were killed by femoral artery bloodletting after administration of the rats for 12-weeks. Kidney tissue of the rats were taken, the blood of kidney tissue were washed with cooling saline (4° C.), then the remnant water was absorbed with filter paper, the kidney tissue was weighed. Per gram kidney tissue was added into 10 ml saline, which was put in homogenized machine (10,000 r/min, 10 seconds, 3rd), 10% tissue homogenate was prepared, the tissue homogenate was centrifuged (4000 r/min) for 10 minutes to get supernatant, the supernatant was saved in −20° C. for determination. 3.3.2.2 Propyl dialdehyde (MDA): MDA is determined by TBA, the test box was bought from Nanjing Jiancheng Bioengineering Research Institute. […] The results have been calculated as mean±SD ( x±SD) and the comparisons of the data have been done by t-test. There are ten rats in every group. GK rats control group and wistar rats group were given saline. The other groups were given test drugs. Test samples were administrated orally at the same time every day for 12 weeks. The measurements are as same as the above experiment.
# [1] = system: Superoxidedismutase (SOD); assay: Superoxidedismutase (SOD) in kidney tissue homogenate of GK rats; details: different ratio experiment, oral daily 12 weeks, total 20 mg/kg per Table 3
# Description: as §1, with “[…] SOD” for “3.3.2.2 Propyl dialdehyde (MDA): MDA”, “Xanthine Oxidase calorimetric analysis,” for “TBA,”
Structure (SMILES),GLU (diabetic GK rats),Lipid TC (diabetic GK rats),Lipid TG (diabetic GK rats),AR activity of lens NADH (0.1 mmol/L) (aldose reductase (AR)),AR activity of lens NADPH (0.1 mmol/L) (aldose reductase (AR)),Measurements about oxidation MDA (Propyl dialdehyde (MDA)),Measurements about oxidation SOD [1]
O=c1c2cc(O)c(O)cc2oc2cc(O)c(C3OC(CO)C(O)C(O)C3O)c(O)c12 (centres unmarked) [Composition A],14.11 ± 2.03 mmol/L,3.26 ± 0.26 mmol/L,2.79 ± 0.30 mmol/L,1.97 ± 0.46,3.11 ± 0.56,3.43 ± 0.89 nmol/mg pro,168.26 ± 13.50 U/mg pro
COc1ccc2cc3[n+](cc2c1OC)CCc1cc2c(cc1-3)OCO2 [Composition H],12.34 ± 2.09 mmol/L,3.33 ± 0.26 mmol/L,2.91 ± 0.09 mmol/L,1.39 ± 0.53,2.48 ± 0.58,3.52 ± 0.77 nmol/mg pro,171.10 ± 13.81 U/mg pro
